Laboratory results from patent publication US8987216B2, “Polysulfated glycosides and salts thereof” (Teva Hungary Pharmaceutical Marketing Private Limited …, priority 2004, dated 2015).
Counter-ions that a name gives are not always drawn. Like-named read-outs stand apart in the source and are kept apart here.

Assays:
BN-rats = experiment: Effect of locally (intratracheally) administered polysulfated glycosides on airways' hyperresponsiveness ex vivo (tracheal contraction to acetylcholine after antigen challenge); type: in vivo, Brown Norway (BN) rats; details: Control 100 ± 0, Placebo 334 ± 68
Method: Brown Norway (BN) rats were actively sensitized to ovalbumin (OA) by a subcutaneous injection of 0.5 ml of OA/A1(OH)3 gel mixture (2 mg OA+10 g A1(OH)3/100 ml saline) on day 1 with subsequent subcutaneous injections (10 mg OA+10 g A1(OH)3/100 ml saline) given on days 14 and 21. On day 28, animals received the compound described in example 4 intratracheally (0.01; 0.1 or 1.0 mg/kg dose) 2 hours before antigen challenge. Antigen challenge was performed by inhalation of nebulised ovalbumin (1% antigen solution administered in a TSE inhalation system for 1 hour). Animals were sacrificed 48 hours post antigen challenge wherein the tracheas were removed to an organ bath. Dissected tracheas were allowed to equilibrate for 30 minutes before measuring tracheal spasmogenic response curves to acetylcholine (Ach).
As shown in Table 1 ovalbumin challenge of sensitized animals in this model caused a significant tracheal hyper-reactivity to acetylcholine, when the response to the spasmogenic agent was determined 48 h after antigen challenge.

BN rats [1] = experiment: Effect on the allergen stimulated mucus production of airways epithelial cells (PAS(+) cell count in lung sections); type: in vivo, Brown Norway (BN) rats; details: lungs 48 hours after challenge, Control 2.2 ± 0.9, Challenge 15.8 ± 2.8
Method: Sensitized BN rats were treated intratracheally with varying (0.01-1.0 mg/kg) dose of compound described in example 4, two hours before antigenic challenge, using a similar protocol described in Model 1. Lungs were collected 48 hours after challenge and were fixed in 8% phosphate buffered formaldehyde. Samples were then processed for histochemistry routinely. 5 μm thick sections were stained with periodic-acid-Schiff (PAS) reagents and were counterstained with haematoxylineosine. On the sections each epithelial cells of the airways were counted in the whole preparation at a magnification of 400×. The number of PAS(+) [mucus producing] epithelial cells was expressed as the ratio of the total number of epithelial cells.
As it is shown in Table 2, allergen challenge stimulates the mucus production of airways epithelial cells (control vs. challenge).

BN rats [2] = experiment: Effect on the extent of perivascular oedema developed in asthmatic lung tissue; type: in vivo, Brown Norway (BN) rats; details: Control 55 ± 6, Challenge 209 ± 12
Method: Sensitized BN rats were treated intratracheally with varying (0.01-1.0 mg/kg) dose of compound described in example 4, two hours before antigenic challenge, using a similar protocol described in Model 1. Lungs were collected […] and were fixed in 8% phosphate buffered formaldehyde. Samples were then processed for histochemistry routinely. 5 μm thick sections were stained with periodic-acid-Schiff (PAS) reagents and were counterstained with haematoxylineosine. On the 5 μm sections, the area of the connective tissue around the vasculare was determined and expressed as a ratio of the area of the corresponding blood vessel itself.

IP-3 receptor = biological target: T1, IP-3 receptor (Rattus norvegicus, UniProt P29994); experiment: IP-3 receptor antagonistic effect: inhibition of IP3 binding to its receptor in rat cerebellum membrane preparations
T1 construct: determined using rat cerebellum membrane preparations; from tissue; host or cells: rat cerebellum (microsomal membrane preparation)
Method: Glycosides of the present invention, depending on their chemical structure, inhibit the binding of inositol-1,4,5-trisphosphate (IP3) to its receptor in microsomal membrane preparations. As IP3 is a messenger molecule playing distinguished role in the activation of different cells, interfering with this function can explain the anti-asthmatic effect of these polysulfated glycosides.
The IP3 antagonist effect of the polysulfated glycosides were determined using rat cerebellum membrane preparations according to Worley et al. (JBC 262, 12132, 1987).

[3] = 0.01 mg/kg intratracheally two hours before antigenic challenge
[4] = 0.1 mg/kg intratracheally two hours before antigenic challenge

T1 sequence (P29994 whole entry): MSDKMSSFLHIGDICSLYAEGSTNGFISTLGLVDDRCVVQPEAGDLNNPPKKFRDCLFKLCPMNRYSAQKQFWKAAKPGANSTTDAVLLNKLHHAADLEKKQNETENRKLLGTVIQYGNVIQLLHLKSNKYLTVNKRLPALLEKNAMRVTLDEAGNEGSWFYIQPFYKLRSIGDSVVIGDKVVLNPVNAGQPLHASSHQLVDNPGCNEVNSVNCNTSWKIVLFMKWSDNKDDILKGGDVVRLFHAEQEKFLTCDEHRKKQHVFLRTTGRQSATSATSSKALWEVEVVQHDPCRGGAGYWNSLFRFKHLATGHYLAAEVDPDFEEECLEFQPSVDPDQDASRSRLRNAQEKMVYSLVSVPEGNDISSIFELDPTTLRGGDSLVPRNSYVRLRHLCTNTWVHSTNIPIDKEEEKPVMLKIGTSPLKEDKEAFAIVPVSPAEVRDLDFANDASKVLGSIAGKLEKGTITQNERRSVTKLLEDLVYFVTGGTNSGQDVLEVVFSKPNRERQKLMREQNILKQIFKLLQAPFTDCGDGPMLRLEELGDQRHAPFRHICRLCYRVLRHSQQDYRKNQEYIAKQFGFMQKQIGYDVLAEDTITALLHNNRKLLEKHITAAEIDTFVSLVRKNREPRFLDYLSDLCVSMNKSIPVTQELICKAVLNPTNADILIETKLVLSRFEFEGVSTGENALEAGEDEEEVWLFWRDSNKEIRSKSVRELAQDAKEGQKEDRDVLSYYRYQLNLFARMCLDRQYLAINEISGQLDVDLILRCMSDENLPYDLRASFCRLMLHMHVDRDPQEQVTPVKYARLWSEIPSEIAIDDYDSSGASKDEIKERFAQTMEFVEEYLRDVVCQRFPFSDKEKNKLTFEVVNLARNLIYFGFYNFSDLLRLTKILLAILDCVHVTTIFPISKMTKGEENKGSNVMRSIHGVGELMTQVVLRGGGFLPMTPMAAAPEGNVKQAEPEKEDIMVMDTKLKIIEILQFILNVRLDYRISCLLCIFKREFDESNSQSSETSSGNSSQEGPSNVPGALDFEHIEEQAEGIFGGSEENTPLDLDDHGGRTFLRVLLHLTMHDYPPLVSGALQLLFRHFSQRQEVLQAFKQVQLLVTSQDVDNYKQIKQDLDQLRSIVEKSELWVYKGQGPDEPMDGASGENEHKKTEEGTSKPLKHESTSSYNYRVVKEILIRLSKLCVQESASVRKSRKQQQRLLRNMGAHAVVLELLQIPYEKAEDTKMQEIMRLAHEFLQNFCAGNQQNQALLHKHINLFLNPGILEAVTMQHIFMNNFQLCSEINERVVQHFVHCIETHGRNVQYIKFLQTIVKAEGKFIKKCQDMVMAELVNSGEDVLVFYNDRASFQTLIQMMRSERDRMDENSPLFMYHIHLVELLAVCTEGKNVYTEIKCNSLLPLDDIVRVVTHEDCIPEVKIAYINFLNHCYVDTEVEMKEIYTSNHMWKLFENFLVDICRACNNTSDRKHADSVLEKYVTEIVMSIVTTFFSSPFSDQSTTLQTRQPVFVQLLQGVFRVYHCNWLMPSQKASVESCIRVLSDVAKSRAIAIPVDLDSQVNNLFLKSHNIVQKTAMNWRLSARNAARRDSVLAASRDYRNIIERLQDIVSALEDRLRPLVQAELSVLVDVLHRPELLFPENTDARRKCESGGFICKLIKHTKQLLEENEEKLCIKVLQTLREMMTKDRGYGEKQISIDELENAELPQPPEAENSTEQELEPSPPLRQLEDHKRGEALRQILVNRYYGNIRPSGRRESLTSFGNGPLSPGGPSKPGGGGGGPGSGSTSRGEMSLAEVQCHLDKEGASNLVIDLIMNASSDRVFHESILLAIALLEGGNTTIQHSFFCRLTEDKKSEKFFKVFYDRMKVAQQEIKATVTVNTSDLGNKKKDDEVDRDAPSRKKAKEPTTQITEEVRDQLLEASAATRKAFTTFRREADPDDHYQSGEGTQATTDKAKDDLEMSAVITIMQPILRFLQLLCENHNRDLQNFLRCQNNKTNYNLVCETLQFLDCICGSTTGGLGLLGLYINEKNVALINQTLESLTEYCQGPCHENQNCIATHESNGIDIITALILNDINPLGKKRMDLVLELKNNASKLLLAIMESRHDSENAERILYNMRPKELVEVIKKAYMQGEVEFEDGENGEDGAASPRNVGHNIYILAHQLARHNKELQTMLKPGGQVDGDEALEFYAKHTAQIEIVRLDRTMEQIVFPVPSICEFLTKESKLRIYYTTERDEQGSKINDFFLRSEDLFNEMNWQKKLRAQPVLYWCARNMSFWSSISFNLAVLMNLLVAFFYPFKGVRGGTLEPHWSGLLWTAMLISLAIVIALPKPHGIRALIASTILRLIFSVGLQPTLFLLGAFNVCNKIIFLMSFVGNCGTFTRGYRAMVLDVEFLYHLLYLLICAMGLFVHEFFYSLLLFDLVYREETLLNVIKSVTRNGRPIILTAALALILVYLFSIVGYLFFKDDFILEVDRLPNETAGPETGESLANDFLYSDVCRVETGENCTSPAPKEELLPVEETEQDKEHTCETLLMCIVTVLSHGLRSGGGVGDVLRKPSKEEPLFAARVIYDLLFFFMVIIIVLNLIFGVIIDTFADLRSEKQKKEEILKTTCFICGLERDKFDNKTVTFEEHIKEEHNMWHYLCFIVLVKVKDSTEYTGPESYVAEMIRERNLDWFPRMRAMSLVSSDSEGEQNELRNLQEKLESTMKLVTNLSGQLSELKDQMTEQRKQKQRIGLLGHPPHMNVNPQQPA

O=S(=O)(O)OC[C@H](OS(=O)(=O)O)[C@@H](O[C@@H]1O[C@H](COS(=O)(=O)O)[C@@H](OS(=O)(=O)O)[C@H](OS(=O)(=O)O)[C@H]1OS(=O)(=O)O)[C@H](OS(=O)(=O)O)[C@@H](COS(=O)(=O)O)OS(=O)(=O)O [Example 4, 1,2,4,5,6-penta-O-sulfato-3-O-(2,3,4,6-tetra-β-sulfato-β-D-glucopyranosyl)-D-glucitol nona potassium salt]
MAX: Contraction at maximal Ach concentration relative to control (mean ± SEM) (BN-rats; 0.01 mg/kg intratracheally 2 hours before ovalbumin challenge): 134 ± 26
MAX: Contraction at maximal Ach concentration relative to control (mean ± SEM) (BN-rats; 1.0 mg/kg intratracheally 2 hours before ovalbumin challenge): 116 ± 37
number of PAS(+) cells as percent of total number of cells (average ± SEM) (BN rats [1]; [3]): 15.0 ± 2.7%
number of PAS(+) cells as percent of total number of cells (average ± SEM) (BN rats [1]; [4]): 6.3 ± 1.5%
Oedema: area of oedema relative to area of vasculature (average ± SEM) (BN rats [2]; [3]): 113 ± 7
Oedema: area of oedema relative to area of vasculature (average ± SEM) (BN rats [2]; [4]): 106 ± 8
IC50 (IP-3 receptor; read-out: Average IC50): 163 nM
IC50 (IP-3 receptor; read-out: IC 50 (μg/ml) Average ± SEM (n) (converted)): 216 nM
